Our source for the CI, Activity and inhibition values is ChEMBL document CHEMBL5715952 (Oncotarget, 2015).

The subject of experiment [1] is ANBL-6. Briefly: Synergistic antiproliferative activity against wild-type human ANBL-6 cells assessed as reduction in cell viability at ED75 incubated for 72 hrs in presence of bortezomib by MTS assay. It counts as functional.
Experiment [2] relates to Bortezomib-resistant ANBL6. Put plainly: Synergistic antiproliferative activity against human bortezomib-resistant ANBL6 cells assessed as reduction in cell viability at ED75 incubated for 72 hrs in presence of bortezomib by MTS assay. Format: functional. On the technique in general: Formazan colour is commonly taken as a measure of viable cells.
For experiment [3], the system named is Bortezomib-resistant ANBL6. Put plainly: Synergistic antiproliferative activity against human bortezomib-resistant ANBL6 cells assessed as reduction in cell viability at ED90 incubated for 72 hrs in presence of bortezomib by MTS assay. It counts as functional.
In experiment [4] the test system is ANBL-6. Briefly: Induction of apoptosis in wild-type human ANBL-6 cells assessed as viable at 40 nM incubated for 72 hrs by annexin V and 7-AAD staining by flow cytometry analysis (Rvb=59 %). Format: functional. (In general: Flow cytometry measures light scatter and fluorescence of single cells or particles in a stream.)
Experiment [5] deals with ANBL-6. Put plainly: Induction of apoptosis in wild-type human ANBL-6 cells assessed as viable at 1600 nM incubated for 72 hrs by annexin V and 7-AAD staining by flow cytometry analysis (Rvb=59 %). Format: functional.
In experiment [6] the test system is ANBL-6. Put plainly: Induction of apoptosis in wild-type human ANBL-6 cells assessed as late apoptosis at 40 nM incubated for 72 hrs by annexin V and 7-AAD staining by flow cytometry analysis (Rvb=26 %). Format: functional.
Experiment [7] relates to ANBL-6. Put plainly: Induction of apoptosis in wild-type human ANBL-6 cells assessed as early apoptosis at 1600 nM incubated for 72 hrs by annexin V and 7-AAD staining by flow cytometry analysis (Rvb=14 %). It counts as functional.
In experiment [8] the test system is ANBL-6. Briefly: Synergistic apoptosis activity in wild-type human ANBL-6 cells assessed as early apoptosis at 1600 nM incubated for 72 hrs in the presence of BTZ by annexin V and 7-AAD staining by flow cytometry analysis (Rvb=14 %). Format: functional.
For experiment [9], the system named is ANBL-6. Put plainly: Synergistic apoptosis activity in wild-type human ANBL-6 cells assessed as early apoptosis at 1600 nM incubated for 48 hrs in the presence of BTZ by annexin V and 7-AAD staining by flow cytometry analysis. It counts as functional.
For experiment [10], the system named is Bortezomib-resistant ANBL6. Briefly: Synergistic apoptosis activity in human bortezomib-resistant ANBL6 cells assessed as early apoptosis at 1600 nM incubated for 48 hrs in the presence of BTZ by annexin V and 7-AAD staining by flow cytometry analysis. It counts as functional.
Experiment [11] concerns the target T1, Bromodomain and extra-terminal motif (BET) (Homo sapiens) (UniProt P25440+O60885+Q58F21+Q15059). The settings on record: ANBL-6, dose lower 40.0 nM, dose upper […].
Experiment [12] deals with T1, Bromodomain and extra-terminal motif (BET) (Homo sapiens). The settings on record: Bortezomib-resistant ANBL6 cell, dose lower 40.0 nM, dose upper […].

Consider `Cc1sc2c(c1C)C(c1ccc(Cl)cc1)=N[C@@H](CC(N)=O)c1nnc(C)n1-2`, for which the CI in the experiment on ANBL-6 [1] is reported as 0.692; in experiment [2] it was 0.494; in experiment [3], 0.355; in the experiment with ANBL-6 [9] it was 0.24; in experiment [10], 0.77. Further, the Activity with ANBL-6 [4] is on record as 59%; with ANBL-6 [5], 31%; in the experiment with ANBL-6 [6] it was 28%; in the experiment on ANBL-6 [7], 31%; in the experiment with ANBL-6 [8], 84%. Further, the inhibition result in experiment [11] and in experiment [12] was “Dose-Dependent Effect” in each case.
